PMC11433937, “Privileged Scaffold Hybridization in the Design of Carbonic Anhydrase Inhibitors” (Molecules, 2024)

Assays:
hCA XII [1] = target: T1, hCA XII (Homo sapiens, UniProt O43570); assay: Stopped-flow CA-catalyzed CO2 hydration inhibition assay
hCA IX [2] = target: T2, hCA IX (Homo sapiens, UniProt Q16790); assay: as above
hCA II = hCA II (Homo sapiens, UniProt P00918); assay: as above
hCA I = hCA I (Homo sapiens, UniProt P00915); assay: as above
hCA IX [3] = target: T2, hCA IX; set-up: method as in PMID 27775452; details: previously synthesized compound; cited from earlier work
hCA XII [4] = target: T1, hCA XII; set-up: method as in PMID 27775452; details: previously synthesized compound; cited from earlier work

hCA I, sequence (P00915 whole entry): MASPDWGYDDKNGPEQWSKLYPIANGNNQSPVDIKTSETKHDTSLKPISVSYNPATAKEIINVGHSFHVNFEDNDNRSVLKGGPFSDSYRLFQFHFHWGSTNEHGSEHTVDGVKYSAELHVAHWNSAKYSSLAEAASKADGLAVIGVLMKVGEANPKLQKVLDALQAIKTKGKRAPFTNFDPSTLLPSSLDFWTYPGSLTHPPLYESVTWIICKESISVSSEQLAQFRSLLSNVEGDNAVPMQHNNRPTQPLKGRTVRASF
T1 sequence (O43570 30-289 limits assumed): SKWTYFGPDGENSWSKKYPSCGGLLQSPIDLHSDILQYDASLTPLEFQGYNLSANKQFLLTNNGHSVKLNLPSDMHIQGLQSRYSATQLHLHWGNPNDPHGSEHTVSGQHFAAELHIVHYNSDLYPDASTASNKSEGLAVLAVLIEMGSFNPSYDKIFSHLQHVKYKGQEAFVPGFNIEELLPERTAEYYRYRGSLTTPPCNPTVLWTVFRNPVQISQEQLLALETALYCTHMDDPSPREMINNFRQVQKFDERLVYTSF

Row | Structure (SMILES) | melting point [°C] | Ki (hCA XII [1]) [µM] | Ki (hCA IX [2]) [µM] | Ki (hCA II) [µM] | Ki (hCA I) [µM] | selectivity index SI hCA II/hCA XII (hCA XII [1]; ratio of Ki hCA II to Ki hCA XII) | selectivity index SI hCA II/hCA IX (hCA IX [2]; ratio of Ki hCA II to Ki hCA IX) | inhibitory activity against hCA IX (hCA IX [3]) | inhibitory activity against hCA XII (hCA XII [4])
1 | NS(=O)(=O)c1ccc(NN2C(=O)/C(=C3/C(=O)Nc4ccc(Cl)cc43)SC2=Nc2ccccc2)cc1 [5a, 4-((5-((Z)-5-chloro-2-oxoindolin-3-ylidene)-4-oxo-2-(phenylimino)thiazolidin-3-yl)amino)benzenesulfonamide] | 314.2 to 316.1 | 0.0611 | 0.0994 | 0.246 | 4.59 |  |  |  | 
2 | NS(=O)(=O)c1ccc(NN2C(=O)/C(=C3/C(=O)Nc4ccc(Br)cc43)SC2=Nc2ccccc2)cc1 [5d, 4-((5-((Z)-5-bromo-2-oxoindolin-3-ylidene)-4-oxo-2-(phenylimino)thiazolidin-3-yl)amino)benzenesulfonamide] | 331.4 to 332.7 | 0.193 | 0.0874 | 0.104 | > 10 |  |  |  | 
3 | NS(=O)(=O)c1ccc(NN2C(=O)/C(=C3/C(=O)Nc4c(Br)cccc43)SC2=Nc2ccccc2)cc1 [5i, 4-((5-((Z)-7-bromo-2-oxoindolin-3-ylidene)-4-oxo-2-(phenylimino)thiazolidin-3-yl)amino)benzenesulfonamide] | 344.9 to 346 | 0.094 | 0.0503 | 0.0178 | 7.69 |  |  |  | 
4 | CN1C(=O)/C(=C2/C(=O)Nc3c(F)cccc32)S/C1=N\c1ccc(S(N)(=O)=O)cc1 [EMAC10020m] |  |  |  |  |  |  |  | in the nanomolar range | in the nanomolar range

The remaining compounds from weak to strong by Ki (hCA XII [1]), led by results:

Row | melting point [°C] | Ki (hCA XII [1]) [µM] | Ki (hCA IX [2]) [µM] | Ki (hCA II) [µM] | Ki (hCA I) [µM] | selectivity index SI hCA II/hCA XII (hCA XII [1]; ratio of Ki hCA II to Ki hCA XII) | selectivity index SI hCA II/hCA IX (hCA IX [2]; ratio of Ki hCA II to Ki hCA IX) | Structure (SMILES) | inhibitory activity against hCA IX (hCA IX [3]) | inhibitory activity against hCA XII (hCA XII [4])
5 | 328.8 to 330.1 | 0.0537 | 0.005 | 0.0096 | 9.06 |  |  | COc1ccc2c(c1)/C(=C1/SC(=Nc3ccccc3)N(Nc3ccc(S(N)(=O)=O)cc3)C1=O)C(=O)N2 [5e, 4-((5-((Z)-5-methoxy-2-oxoindolin-3-ylidene)-4-oxo-2-(phenylimino)thiazolidin-3-yl)amino)benzenesulfonamide] |  | 
6 | 297.5 to 299.8 | 0.0218 | 0.0231 | 0.0069 | 5.88 |  |  | NS(=O)(=O)c1ccc(NN2C(=O)/C(=C3/C(=O)Nc4ccc(F)cc43)SC2=Nc2ccccc2)cc1 [5c, 4-((5-((Z)-5-fluoro-2-oxoindolin-3-ylidene)-4-oxo-2-(phenylimino)thiazolidin-3-yl)amino)benzenesulfonamide] |  | 
7 |  | 0.0168 | 0.0025 | 0.0096 | 5.28 |  |  | NS(=O)(=O)c1ccc(NN2C(=O)/C(=C3/C(=O)Nc4ccccc43)SC2=Nc2ccccc2)cc1 [5g, 4-((4-oxo-5-((Z)-2-oxoindolin-3-ylidene)-2-(phenylimino)thiazolidin-3-yl)amino)benzenesulfonamide] |  | 
8 | 338.5 to 340 | 0.0075 | 0.0346 | 0.159 | 6.03 |  |  | NS(=O)(=O)c1ccc(NN2C(=O)/C(=C3/C(=O)Nc4ccc([N+](=O)[O-])cc43)SC2=Nc2ccccc2)cc1 [5b, 4-((5-((Z)-5-nitro-2-oxoindolin-3-ylidene)-4-oxo-2-(phenylimino)thiazolidin-3-yl)amino)benzenesulfonamide] |  | 
9 | 336.1 to 336.6 | 0.0013 | 0.0127 | 0.0041 | 6.62 |  |  | NS(=O)(=O)c1ccc(NN2C(=O)/C(=C3/C(=O)Nc4c(F)cccc43)SC2=Nc2ccccc2)cc1 [5h, 4-((5-((Z)-7-fluoro-2-oxoindolin-3-ylidene)-4-oxo-2-(phenylimino)thiazolidin-3-yl)amino)benzenesulfonamide] |  | 
10 | 333.9 to 334.6 | 0.0006 | 0.0149 | 0.0708 | > 10 | 118 | 4.75 | Cc1ccc2c(c1)/C(=C1/SC(=Nc3ccccc3)N(Nc3ccc(S(N)(=O)=O)cc3)C1=O)C(=O)N2 [5f, 4-((5-((Z)-5-methyl-2-oxoindolin-3-ylidene)-4-oxo-2-(phenylimino)thiazolidin-3-yl)amino)benzenesulfonamide] |  | 
